Experimental findings from patent publication US20070254895A1, “Crystalline solvate of glucokinase activator” (priority 2006, published 2007) are described below.

Each structure is given as a SMILES string. Several values for one entry are separate records, joined by “and”; a condition that tells them apart may be missing. Identical values can stand only once.

This series can be described thus: Stability samples of IPA solvate analyzed for IPA content and heat of fusion. The series is classed as physicochemical. Here is the method:
Differential scanning calorimetry was performed using Perkin Elmer DSC-7 and Diamond DSC, using sealed aluminum pan with a hole in the lid. Sample was heated at a rate of 10° C./min.
The stability sample obtained at various time points and conditions were analyzed for the IPA level and heat of fusion (Table 6). These two variables were plotted against each other to see the correlation (FIG. 17).
Sample was stored in a double PE bag with either metal drum or fiber drum as the container.

Setting [1] is: 40° C./75% RH/Fiber drum, double PE bag, 1 month.

As for `CC(C)O.CS(=O)(=O)c1ccc([C@@H](C[C@H]2CCC(=O)C2)C(=O)Nc2cnccn2)cc1Cl` [Lot 3], the “IPA (% w/w)” value is, setting by setting: (5° C./Metal, 3 months) 12.1 % w/w; (5° C./Metal, 6 months) 12.1 % w/w; (25° C./60% RH/Metal, 3 months) 12 % w/w; (25° C./60% RH/Metal, 6 months) 12 % w/w; (40° C./75% RH/Metal, 1 month) 11.6 % w/w; (40° C./75% RH/Metal, 3 months) 11.3 % w/w. Further, the “IPA (% w/w)” value is, setting by setting: (40° C./75% RH/Metal, 6 months) 8.4 % w/w; (50° C./Metal, 1 month) 12 % w/w. For the same compound, the “ΔH (J/g) heat of fusion” value was 107.801 J/g (5° C./Metal, 3 months); 106.157 J/g (5° C./Metal, 6 months); 104.847 J/g (25° C./60% RH/Metal, 3 months); 102.406 J/g (25° C./60% RH/Metal, 6 months); 105.006 J/g and 102.972 J/g (40° C./75% RH/Metal, 1 month); 103.326 J/g and 103.52 J/g (40° C./75% RH/Metal, 3 months). In addition, the “ΔH (J/g) heat of fusion” value was 65.867 J/g and 67.851 J/g and 61.796 J/g (40° C./75% RH/Metal, 6 months); 100.639 J/g (50° C./Metal, 1 month).

As to `CC(C)O.CS(=O)(=O)c1ccc([C@@H](C[C@H]2CCC(=O)C2)C(=O)Nc2cnccn2)cc1Cl` [Lot 1], the “IPA (% w/w)” value was found to be 12.2 % w/w (5° C./Fiber, 6 months); 12 % w/w (25° C./60% RH/Fiber, 3 months); 12 % w/w (25° C./60% RH/Fiber, 6 months); 12 % w/w (25° C./60% RH/Metal, 3 months); 11.9 % w/w (25° C./60% RH/Metal, 6 months); 11.2 % w/w (30° C./60% RH/Fiber, 10 months). Also, the “IPA (% w/w)” value (30° C./60% RH/Metal, 10 months) amounted to 11.5 % w/w; the “IPA (% w/w)” value under setting [1] is reported as 8.9 % w/w; the “IPA (% w/w)” value (40° C./75% RH/Fiber, 3 months) is 4.4 % w/w; the “IPA (% w/w)” value (40° C./75% RH/Fiber, 6 months) is on record as 4 % w/w; the “IPA (% w/w)” value (40° C./75% RH/Metal, 1 month) worked out at 11.1 % w/w; the “IPA (% w/w)” value (40° C./75% RH/Metal, 3 months) is on record as 7.3 % w/w. The “IPA (% w/w)” value (40° C./75% RH/Metal, 6 months) came to 5 % w/w; the “IPA (% w/w)” value (50° C./Fiber, 1 month) was determined as 11.8 % w/w; the “IPA (% w/w)” value (50° C./Metal, 1 month) was 12 % w/w. Besides, the “ΔH (J/g) heat of fusion” value runs as follows: (5° C./Fiber, 6 months) 104.917 J/g; (25° C./60% RH/Fiber, 3 months) 99.861 J/g; (25° C./60% RH/Fiber, 6 months) 98.112 J/g; (25° C./60% RH/Metal, 3 months) 102.665 J/g; (25° C./60% RH/Metal, 6 months) 101.346 J/g; (30° C./60% RH/Fiber, 10 months) 87.929 J/g. Also, the “ΔH (J/g) heat of fusion” value was 99.538 J/g (30° C./60% RH/Metal, 10 months); 65.084 J/g under setting [1]; 28.733 J/g and 29.404 J/g and 26.416 J/g and 24.713 J/g (40° C./75% RH/Fiber, 3 months); 26.529 J/g (40° C./75% RH/Fiber, 6 months); 89.35 J/g (40° C./75% RH/Metal, 1 month); 53.712 J/g and 51.302 J/g and 47.200 J/g (40° C./75% RH/Metal, 3 months). The “ΔH (J/g) heat of fusion” value by setting is: (40° C./75% RH/Metal, 6 months) 32.201 J/g and 29.011 J/g and 26.128 J/g; (50° C./Fiber, 1 month) 105.445 J/g; (50° C./Metal, 1 month) 102.033 J/g and 99.554 J/g.
